In patent US6737383B1, “Herbicidal oxadiazolidines” (priority 1999, dated 2004):

Experiments:
[1] = test system: blackgrass; experiment: Test E blackgrass; assay type: in vivo, Alopecurus myosuroides; conditions: Preemergence
[2] = test system: winter wheat; experiment: Test E winter wheat; assay type: in vivo, Triticum aestivum; conditions: Postemergence, 0 to 100 scale, 0 is no effect, 100 is complete control
How it was run: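 Compound formulated with surfactant in a non-phytotoxic solvent (postemergence: young 1- to 4-leaf plants); held in greenhouse approx. 21–28 days; visual assessment against untreated plants.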

[3] = test system: green foxtail; experiment: Test E green foxtail; assay type: in vivo, Setaria viridis; conditions: Preemergence
[4] = test system: wild oat; experiment: Test E wild oat; assay type: in vivo, Avena fatua; conditions: Preemergence
[5] = test system: giant foxtail; experiment: Test B pre/postemergence giant foxtail; assay type: in vivo, Setaria faberii; conditions: for Giant foxtail plant response rating: scale of 0 to 10 where 0 is no effect and 10 is complete control
How it was run: (§1)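 Herbicidal effect was estimated by eye on a ten-point control scale after plants spent twelve to sixteen days in a greenhouse following soil or foliar treatment. Foliar sprays targeted plants at one to four leaves; all doses were formulated in a non-phytotoxic solvent with surfactant.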

[6] = test system: winter wheat; experiment: Test E winter wheat; assay type: in vivo, Triticum aestivum; conditions: Preemergence
[7] = test system: winter barley; experiment: Test E winter barley; assay type: in vivo, Hordeum vulgare; conditions: Preemergence
[8] = test system: crabgrass; experiment: Test B pre/postemergence crabgrass; assay type: in vivo, Digitaria sanguinalis; conditions: for Crabgrass plant response rating: scale of 0 to 10 where 0 is no effect and 10 is complete control
How it was run: as §1

[9] = test system: sugar beet; experiment: Test B pre/postemergence sugar beet; assay type: in vivo, Beta vulgaris; conditions: for Sugarbeets plant response rating: scale of 0 to 10 where 0 is no effect and 10 is complete control
How it was run: as §1

[10] = test system: Italian ryegrass; experiment: Test E Italian ryegrass; assay type: in vivo, Lolium multiflorum; conditions: Preemergence
[11] = test system: soybean; experiment: Test B pre/postemergence soybean; assay type: in vivo, Glycine max; conditions: for Soybean plant response rating: scale of 0 to 10 where 0 is no effect and 10 is complete control
How it was run: as §1

[12] = Rate 125 g/ha, 0 to 100 scale (0 no effect, 100 complete control)
[13] = Rate 500 g/ha, 0 to 100 scale (0 no effect, 100 complete control)
[14] = Postemergence, Rate 125 g/ha, scale 0 to 10, 0 is no effect, 10 is complete control
[15] = Postemergence, Rate 250 g/ha, scale 0 to 10, 0 is no effect, 10 is complete control
[16] = Preemergence, Rate 62 g/ha, scale 0 to 10 (0 no effect, 10 complete control)
[17] = Rate 500 g/ha, Postemergence, scale 0 to 10, 0 no effect, 10 complete control
[18] = Rate 250 g/ha, 0 to 100 scale, 0 no effect, 100 complete control

SMILES: CC1CC1n1c(=O)on(C(=O)N(c2ccccc2)C(C)C)c1=O (stereo not drawn) [Compound 370]
- Plant response rating, Blackgrass [1, 12]: 50
- Plant response rating, Blackgrass ([1]; Rate 250 g/ha, 0 to 100 scale): 70
- Plant response rating, Blackgrass [1, 13]: 100
- Plant response rating, Wheat (winter) ([2]; Rate 125 g/ha): 70
- Plant response rating, Wheat (winter) ([2]; Rate 250 g/ha): 80
- Plant response rating, Wheat (winter) ([2]; Rate 500 g/ha): 85
- Plant response rating, Green foxtail [3, 12]: 70
- Plant response rating, Green foxtail ([3]; Rate 250 g/ha, 0 to 100 scale): 100
- Plant response rating, Green foxtail [3, 13]: 100
- Plant response rating, Wild oat [4, 12]: 60
- Plant response rating, Wild oat ([4]; Rate 250 g/ha, 0 to 100 scale): 75
- Plant response rating, Wild oat [4, 13]: 90
- Plant response rating, Giant foxtail [5, 14]: 8
- Plant response rating, Giant foxtail [5, 15]: 8
- Plant response rating, Giant foxtail [5, 16]: 9
- Giant foxtail plant response rating (0 to 10 scale) ([5]; Preemergence, Rate 125 g/ha): 10
- Giant foxtail plant response rating ([5]; Preemergence, Rate 250 g/ha): 10
- Giant foxtail plant response rating ([5]; Preemergence, Rate 500 g/ha): 10
- Giant foxtail plant response rating ([5]; Rate 62 g/ha, Postemergence): 6
- Plant response rating, Giant foxtail [5, 17]: 9
- Plant response rating, Wheat (winter) [6, 12]: 50
- Plant response rating, Wheat (winter) ([6]; Rate 250 g/ha, 0 to 100 scale): 40
- Plant response rating, Wheat (winter) [6, 13]: 60
- Plant response rating, Barley (winter) [7, 12]: 60
- Plant response rating, Barley (winter) [7, 18]: 60
- Plant response rating, Barley (winter) [7, 13]: 70
- Plant response rating, Crabgrass [8, 14]: 7
- Plant response rating, Crabgrass [8, 15]: 7
- Plant response rating, Crabgrass [8, 16]: 7
- Crabgrass plant response rating (0 to 10 scale) ([8]; Preemergence, Rate 125 g/ha): 8
- Crabgrass plant response rating ([8]; Preemergence, Rate 250 g/ha): 9
- Crabgrass plant response rating ([8]; Preemergence, Rate 500 g/ha): 10
- Crabgrass plant response rating ([8]; Rate 62 g/ha, Postemergence): 3
- Plant response rating, Crabgrass [8, 17]: 9
- Plant response rating, Sugarbeets [9, 14]: 0
- Plant response rating, Sugarbeets [9, 15]: 0
- Plant response rating, Sugarbeets [9, 16]: 2
- Sugarbeets plant response rating (0 to 10 scale) ([9]; Preemergence, Rate 125 g/ha): 3
- Sugarbeets plant response rating ([9]; Preemergence, Rate 250 g/ha): 5
- Sugarbeets plant response rating ([9]; Rate 62 g/ha, Postemergence): 0
- Plant response rating, Sugarbeets [9, 17]: 0
- Plant response rating, I. Ryegrass [10, 12]: 55
- Plant response rating, I. Ryegrass ([10]; Rate 250 g/ha, 0 to 100 scale): 85
- Plant response rating, I. Ryegrass [10, 13]: 90
- Plant response rating, Soybean [11, 14]: 2
- Plant response rating, Soybean [11, 15]: 3
- Plant response rating, Soybean [11, 16]: 0
- Soybean plant response rating (0 to 10 scale) ([11]; Preemergence, Rate 125 g/ha): 0
- Soybean plant response rating ([11]; Preemergence, Rate 250 g/ha): 2
- Soybean plant response rating ([11]; Preemergence, Rate 500 g/ha): 7
- Soybean plant response rating ([11]; Rate 62 g/ha, Postemergence): 1
- Plant response rating, Soybean [11, 17]: 4

SMILES: CC1CC1n1c(=O)on(C(=O)N(c2ccc(F)cc2)C(C)C)c1=O (stereo not drawn) [Compound 371]
- Plant response rating, Blackgrass [1, 12]: 85
- Plant response rating, Blackgrass ([1]; Rate 250 g/ha, 0 to 100 scale): 100
- Plant response rating, Blackgrass [1, 13]: 100
- Plant response rating, Wheat (winter) ([2]; Rate 125 g/ha): 70
- Plant response rating, Wheat (winter) ([2]; Rate 250 g/ha): 65
- Plant response rating, Wheat (winter) ([2]; Rate 500 g/ha): 80
- Plant response rating, Green foxtail [3, 12]: 35
- Plant response rating, Green foxtail ([3]; Rate 250 g/ha, 0 to 100 scale): 60
- Plant response rating, Green foxtail [3, 13]: 85
- Plant response rating, Wild oat [4, 12]: 70
- Plant response rating, Wild oat ([4]; Rate 250 g/ha, 0 to 100 scale): 85
- Plant response rating, Wild oat [4, 13]: 90
- Plant response rating, Giant foxtail [5, 14]: 7
- Plant response rating, Giant foxtail [5, 15]: 8
- Plant response rating, Giant foxtail [5, 16]: 10
- Giant foxtail plant response rating (0 to 10 scale) ([5]; Preemergence, Rate 125 g/ha): 10
- Giant foxtail plant response rating ([5]; Preemergence, Rate 250 g/ha): 10
- Giant foxtail plant response rating ([5]; Preemergence, Rate 500 g/ha): 10
- Giant foxtail plant response rating ([5]; Rate 62 g/ha, Postemergence): 5
- Plant response rating, Giant foxtail [5, 17]: 9
- Plant response rating, Wheat (winter) [6, 12]: 60
- Plant response rating, Wheat (winter) ([6]; Rate 250 g/ha, 0 to 100 scale): 60
- Plant response rating, Wheat (winter) [6, 13]: 65
- Plant response rating, Barley (winter) [7, 12]: 40
- Plant response rating, Barley (winter) [7, 18]: 60
- Plant response rating, Barley (winter) [7, 13]: 70
- Plant response rating, Crabgrass [8, 14]: 4
- Plant response rating, Crabgrass [8, 15]: 8
- Plant response rating, Crabgrass [8, 16]: 8
- Crabgrass plant response rating (0 to 10 scale) ([8]; Preemergence, Rate 125 g/ha): 10
- Crabgrass plant response rating ([8]; Preemergence, Rate 250 g/ha): 10
- Crabgrass plant response rating ([8]; Preemergence, Rate 500 g/ha): 10
- Crabgrass plant response rating ([8]; Rate 62 g/ha, Postemergence): 3
- Plant response rating, Crabgrass [8, 17]: 9
- Plant response rating, Sugarbeets [9, 14]: 0
- Plant response rating, Sugarbeets [9, 15]: 0
- Plant response rating, Sugarbeets [9, 16]: 0
- Sugarbeets plant response rating (0 to 10 scale) ([9]; Preemergence, Rate 125 g/ha): 6
- Sugarbeets plant response rating ([9]; Preemergence, Rate 250 g/ha): 6
- Sugarbeets plant response rating ([9]; Preemergence, Rate 500 g/ha): 10
- Sugarbeets plant response rating ([9]; Rate 62 g/ha, Postemergence): 0
- Plant response rating, Sugarbeets [9, 17]: 0
- Plant response rating, I. Ryegrass [10, 12]: 60
- Plant response rating, I. Ryegrass ([10]; Rate 250 g/ha, 0 to 100 scale): 70
- Plant response rating, I. Ryegrass [10, 13]: 90
- Plant response rating, Soybean [11, 14]: 1
- Plant response rating, Soybean [11, 15]: 1
- Plant response rating, Soybean [11, 16]: 0
- Soybean plant response rating (0 to 10 scale) ([11]; Preemergence, Rate 125 g/ha): 0
- Soybean plant response rating ([11]; Preemergence, Rate 250 g/ha): 0
- Soybean plant response rating ([11]; Preemergence, Rate 500 g/ha): 2
- Soybean plant response rating ([11]; Rate 62 g/ha, Postemergence): 1
- Plant response rating, Soybean [11, 17]: 4
